The results in this text go back to US11773094B2, “Farnesoid X receptor agonists and uses thereof” (Metacrine, Inc., priority 2018, dated 2023).

As a reminder, the EC50 is the concentration needed to bring the measured effect to its halfway point.

The assay addresses T1, hFXR (Homo sapiens, UniProt Q96RI1).
T1 construct: expressed in transfected cells; host or cells: CV-1 cells
T1 sequence (Q96RI1 1-486): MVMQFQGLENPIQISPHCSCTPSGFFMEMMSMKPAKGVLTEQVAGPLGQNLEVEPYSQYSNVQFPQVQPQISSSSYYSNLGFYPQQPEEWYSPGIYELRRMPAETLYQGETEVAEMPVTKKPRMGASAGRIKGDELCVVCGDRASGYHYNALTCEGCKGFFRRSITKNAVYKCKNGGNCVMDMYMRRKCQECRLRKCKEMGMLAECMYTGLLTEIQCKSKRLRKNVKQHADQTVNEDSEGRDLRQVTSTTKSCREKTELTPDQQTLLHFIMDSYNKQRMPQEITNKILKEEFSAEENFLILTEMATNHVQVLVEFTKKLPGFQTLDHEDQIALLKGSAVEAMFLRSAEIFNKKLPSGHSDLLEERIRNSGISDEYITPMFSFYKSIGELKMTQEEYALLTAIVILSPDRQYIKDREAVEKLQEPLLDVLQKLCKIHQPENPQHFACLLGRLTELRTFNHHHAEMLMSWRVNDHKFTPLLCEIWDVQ
T1 sequence (P19793 1-462 partner): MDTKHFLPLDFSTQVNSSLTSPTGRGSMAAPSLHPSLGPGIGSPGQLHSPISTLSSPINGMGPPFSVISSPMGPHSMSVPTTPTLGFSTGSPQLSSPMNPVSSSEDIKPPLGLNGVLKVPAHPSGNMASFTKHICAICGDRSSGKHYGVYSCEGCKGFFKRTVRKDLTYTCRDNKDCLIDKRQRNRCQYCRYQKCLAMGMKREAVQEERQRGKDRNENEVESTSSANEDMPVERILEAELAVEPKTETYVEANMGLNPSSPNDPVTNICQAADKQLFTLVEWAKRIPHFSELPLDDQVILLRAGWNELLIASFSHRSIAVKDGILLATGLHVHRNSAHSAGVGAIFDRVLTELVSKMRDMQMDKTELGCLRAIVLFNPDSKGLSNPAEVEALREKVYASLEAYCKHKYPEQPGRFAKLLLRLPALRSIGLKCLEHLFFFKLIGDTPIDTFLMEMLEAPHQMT
Briefly: In Vitro FXR Assay (TK): TK-ECRE-luc reporter in transfected CV-1 cells. It counts as cell-based. As to conditions: CV-1 cells transfected with hFXR, hRXR, pCMX-YFP, 18 hrs incubation, luminescence. As for the experimental part: Example B-1: In Vitro FXR Assay (TK)
CV-1 cells were seeded at a density of 2,000,000 cells in a T175 flask with DMEM+10% charcoal double-stripped FBS and incubated at 37° C. in 5% CO2 for 18 h (O/N).
After 18 h of incubation, the medium in the T175 flask was changed with fresh DMEM+10% charcoal super-stripped serum. In a polypropylene tube, 2500 μL OptiMEM (Life Technologies, Cat #31985-062) was combined with expression plasmids for hFXR, hRXR, TK-ECRE-luc and pCMX-YFP. The tube was then briefly vortexed and incubated at room temperature for 5 minutes. Transfection reagent (X-tremeGENE HP from Roche, Cat #06 366 236 001) was added to the OptiMEM/plasmid mixture vortexed and incubated at room temperature for 20 minutes. Following incubation, the transfection reagent/DNA mixture complex was added to cells in the T175 flask and the cells were incubated at 37° C. in 5% CO2 for 18 h (O/N).
Compounds were serially diluted in DMSO and added to transfected CV-1 cells. The cells were then incubated for 18 hrs. The next day cells were lysed and examined for luminescence.
Molecule `COc1ccc([C@H]2CC[C@H](CN(c3cc(-c4cnn(C(C)(C)C)c4)ccn3)C(=O)[C@H]3CC[C@H](OC(=O)NC4CCOCC4)CC3)CC2)cc1C` [Compound 1.11, trans-4-((4-(1-(tert-Butyl)-1H-pyrazol-4-yl)pyridin-2-yl)((trans-4-(4-methoxy-3-methylphenyl)cyclohexyl)methyl)carbamoyl) cyclohexyl (tetrahydro-2H-pyran-4-yl)carbamate] came in with an EC50 of 10 to 1000 nM. `COc1ccc(C23CCC(CN(c4cc(-c5cnc(C(C)(C)C)s5)ccn4)C(=O)[C@H]4CC[C@H](OC(=O)N5CC(C)(O)C5)CC4)(CC2)CC3)cc1C` [Compound 2.01, 4-((4-(2-(tert-Butyl)thiazol-5-yl)pyridin-2-yl)((4-(4-methoxy-3-methylphenyl)bicyclo[2.2.2]octan-1-yl)methyl)carbamoyl) (trans-cyclohexyl) 3-hydroxy-3-methylazetidine-1-carboxylate] registered a 50% effective concentration (EC50) of no more than 10 nM. `COc1ccc([C@H]2CC[C@H](CN(c3cc(-c4coc(C(C)(C)C)n4)ccn3)C(=O)[C@H]3CC[C@H](OC(=O)N4CCC(O)CC4)CC3)CC2)cc1C` [Compound 1.06, trans-4-((4-(2-(tert-Butyl)oxazol-4-yl)pyridin-2-yl)(((trans)-4-(4-methoxy-3-methylphenyl)cyclohexyl)methyl)carbamoyl) cyclohexyl 4-hydroxypiperidine-1-carboxylate] returned a concentration giving a half-maximal response (EC50) of 10 to 1000 nM.

For the molecule `COc1ccc(C23CCC(CN(c4cc(-c5cnn(C(C)(C)C)c5)ccn4)C(=O)[C@H]4CC[C@H](OC(=O)N5CC(CS(C)(=O)=O)C5)CC4)(CC2)CC3)cc1C` [Compound 2.24, 4-((4-(1-(tert-Butyl)-1H-pyrazol-4-yl)pyridin-2-yl)((4-(4-methoxy-3-methylphenyl)bicyclo[2.2.2]octan-1-yl)methyl)carbamoyl) (trans-cyclohexyl) 3-((methylsulfonyl)methyl) azetidine-1-carboxylate], the concentration giving a half-maximal response (EC50) was no more than 10 nM. `COc1c(C)cc(C23CCC(CN(c4cncc(-c5cnn(C(C)(C)C)c5)n4)C(=O)[C@H]4CC[C@H](OC(=O)N5CC(O)C5)CC4)(CC2)CC3)cc1C` [Compound 3.13, 4-((6-(1-(tert-Butyl)-1H-pyrazol-4-yl)pyrazin-2-yl)((4-(4-methoxy-3,5-dimethylphenyl)bicyclo[2.2.2]octan-1-yl)methyl)carbamoyl) (trans-cyclohexyl) 3-hydroxyazetidine-1-carboxylate] returned an EC50 of 10 to 1000 nM. `CCC(C)(CC)n1cc(-c2ccnc(N(CC34CCC(c5ccc(OC)c(C)c5)(CC3)CC4)C(=O)[C@H]3CC[C@H](OC(=O)NCCCO)CC3)c2)cn1` [Compound 4.07, 4-(((4-(4-Methoxy-3-methylphenyl)bicyclo[2.2.2]octan-1-yl)methyl)(4-(1-(3-methylpentan-3-yl)-1H-pyrazol-4-yl)pyridin-2-yl)carbamoyl)cyclohexyl trans-(3-hydroxypropyl)carbamate] registered an EC50 of no more than 10 nM.

The molecule `COc1ccc(C23CCC(CN(c4cc(-c5cnc(C(C)(C)C)s5)ccn4)C(=O)[C@H]4CC[C@H](OC(=O)N5CC(OCCO)C5)CC4)(CC2)CC3)cc1C` [Compound 2.07, 4-((4-(2-(tert-Butyl)thiazol-5-yl)pyridin-2-yl)((4-(4-methoxy-3-methylphenyl)bicyclo[2.2.2]octan-1-yl)methyl)carbamoyl) (trans-cyclohexyl) 3-(2-hydroxyethoxy)azetidine-1-carboxylate] came in with an EC50 of no more than 10 nM. Take `COc1ccc(C23CCC(CN(c4cc(-c5coc(C(C)(C)C)n5)ccn4)C(=O)[C@H]4CC[C@H](OC(=O)NC5CCOCC5)CC4)(CC2)CC3)cc1C` [Compound 3.11, 4-((4-(2-(tert-Butyl)oxazol-4-yl)pyridin-2-yl)((4-(4-methoxy-3-methylphenyl)bicyclo[2.2.2]octan-1-yl)methyl)carbamoyl) cyclohexyl (tetrahydro-2H-pyran-4-yl)trans-carbamate]: the 50% effective concentration (EC50) was no more than 10 nM. For `COc1ccc(C23CCC(CN(c4cc(-c5cnn(C(C)(C)C)c5)ccn4)C(=O)[C@H]4CC[C@H](OC(=O)NCCC(C)(C)O)CC4)(CC2)CC3)cc1C` [Compound 2.32, 4-((4-(1-(tert-Butyl)-1H-pyrazol-4-yl)pyridin-2-yl)((4-(4-methoxy-3-methylphenyl)bicyclo[2.2.2]octan-1-yl)methyl)carbamoyl) (trans-cyclohexyl) (3-hvdroxy-3-methylbutyl)carbamate], the concentration for a half-maximal effect (EC50) is no more than 10 nM. In the case of `COc1ccc(C23CCC(CN(c4cncc(-c5cnn(C(C)(C)C)c5)n4)C(=O)[C@H]4CC[C@H](OC(=O)N5CC(O)C5)CC4)(CC2)CC3)cc1C` [Compound 3.12, 4-((6-(1-(tert-Butyl)-1H-pyrazol-4-yl)pyrazin-2-yl)((4-(4-methoxy-3-methylphenyl)bicyclo[2.2.2]octan-1-yl)methyl)carbamoyl) (trans-cyclohexyl) 3-hydroxyazetidine-1-carboxylate], the EC50 fell in the range of 10 to 1000 nM. `COc1ccc(C23CCC(CN(c4cc(-c5cnn(C(C)(C)C)c5)c(F)cn4)C(=O)[C@H]4CC[C@H](OC(=O)N5CC(O)C5)CC4)(CC2)CC3)cc1C` [Compound 1.12, 4-((4-(1-(tert-Butyl)-1H-pyrazol-4-yl)-5-fluoropyridin-2-yl)((4-(4-methoxy-3-methylphenyl)bicyclo[2.2.2]octan-1-yl)methyl)carbamoyl) (trans-cyclohexyl) 3-hydroxyazetidine-1-carboxylate] yielded an EC50 of no more than 10 nM. Regarding `COc1ccc(C23CCC(CN(c4cc(-c5cnn(C(C)(C)C)c5)ccn4)C(=O)[C@H]4CC[C@H](OC(=O)NCCO)CC4)(CC2)CC3)cc1C` [Compound 2.30, 4-((4-(1-(tert-Butyl)-1H-pyrazol-4-yl)pyridin-2-yl)((4-(4-methoxy-3-methylphenyl)bicyclo[2.2.2]octan-1-yl)methyl)carbamoyl)cyclohexyl (2-hydroxyethyl)trans-carbamate], the 50% effective concentration (EC50) is no more than 10 nM.

Take `COc1ccc(C23CCC(CN(c4cc(-c5coc(C(C)(C)C)n5)ccn4)C(=O)[C@H]4CC[C@H](OC(=O)NCCCO)CC4)(CC2)CC3)cc1C` [Compound 2, 4-((4-(2-(tert-Butyl)oxazol-4-yl)pyridin-2-yl)((4-(4-methoxy-3-methylphenyl)bicyclo[2.2.2]octan-1-yl)methyl)carbamoyl) (trans-cyclohexyl) (3-hydroxypropyl)carbamate]: the EC50 was no more than 10 nM. For the molecule `COc1ccc(C23CCC(CN(c4cc(-c5coc(C(C)(C)C)n5)ccn4)C(=O)[C@H]4CC[C@H](OC(=O)N5CCC(O)CC5)CC4)(CC2)CC3)cc1C` [Compound 2.17, 4-((4-(2-(tert-Butyl)oxazol-4-yl)pyridin-2-yl)((4-(4-methoxy-3-methylphenyl)bicyclo[2.2.2]octan-1-yl)methyl)carbamoyl)cyclohexyl 4-hydroxypiperidine- trans-1-carboxylate], the EC50 is no more than 10 nM.

In the case of `COc1ccc(C23CCC(CN(c4cc(-c5coc(C(C)(C)C)n5)ccn4)C(=O)[C@H]4CC[C@H](OC(=O)NCCC(C)(C)O)CC4)(CC2)CC3)cc1C` [Compound 2.20, 4-((4-(2-(tert-Butyl)oxazol-4-yl)pyridin-2-yl)((4-(4-methoxy-3-methylphenyl)bicyclo[2.2.2]octan-1-yl)methyl)carbamoyl) (trans-cyclohexyl) (3-hydroxy-3-methylbutyl)carbamate], the concentration giving a half-maximal response (EC50) is no more than 10 nM.

For `COc1ccc(C23CCC(CN(c4cc(-c5coc(C(C)(C)C)n5)ccn4)C(=O)[C@H]4CC[C@H](OC(=O)NCCO)CC4)(CC2)CC3)cc1C` [Compound 2.19, 4-((4-(2-(tert-Butyl)oxazol-4-yl)pyridin-2-yl)((4-(4-methoxy-3-methylphenyl)bicyclo[2.2.2]octan-1-yl)methyl)carbamoyl)cyclohexyl (2-hydroxyethyl)trans-carbamate], the EC50 is no more than 10 nM.
